Data on 10 compounds can be found in ChEMBL document CHEMBL4043278, “Discovery of benzo[g]indoles as a novel class of non-covalent Keap1-Nrf2 protein-protein interaction inhibitor” (Bioorg Med Chem Lett, 2017).

The test system of one data set is HepG2. As to the kind of experiment: Cytotoxicity against human HepG2 cells assessed as reduction in cell viability at 50 uM after 24 hrs by WST8 assay. The data set is classed as cell-based. As to conditions: hepg2, 24 h. (Tetrazolium assays rely on reduction of a dye to a coloured formazan, in cell work by metabolically active cells.)
The nature of data set [1]: Metabolic stability in human liver microsomes assessed as parent compound remaining at 1 uM preincubated for 3 mins followed by NADP+ addition measured after 30 mins by LC-MS assay. The data set is classed as ADME, microsome. As to conditions: read-out: Stability. (In general: Microsomes from liver hold many membrane-bound enzymes, among them those of drug oxidation.)

In data set [2] the target is T1, Kelch-like ECH-associated protein 1/Nuclear factor erythroid 2-related factor 2 (Mus musculus) (UniProt Q60795+Q9Z2X8). As to the kind of experiment: Inhibition of Keap1-Nrf2 protein-protein interaction in MEF assessed as increase in Nrf2 activation mediated NQO1 mRNA level at 10 uM after 4 hrs by qRT-PCR method.
The target in data set [3] is T1, Kelch-like ECH-associated protein 1/Nuclear factor erythroid 2-related factor 2 (Mus musculus). Briefly: Inhibition of Keap1-Nrf2 protein-protein interaction in MEF assessed as increase in Nrf2 activation mediated NQO1 mRNA level at 100 uM after 4 hrs by qRT-PCR method. For orientation: Quantitative PCR measures a nucleic acid by following its amplification.

Active and inactive are the calls of the source. No cut-off for these calls is given here.

T1 sequence (Q60795 whole entry, looked up): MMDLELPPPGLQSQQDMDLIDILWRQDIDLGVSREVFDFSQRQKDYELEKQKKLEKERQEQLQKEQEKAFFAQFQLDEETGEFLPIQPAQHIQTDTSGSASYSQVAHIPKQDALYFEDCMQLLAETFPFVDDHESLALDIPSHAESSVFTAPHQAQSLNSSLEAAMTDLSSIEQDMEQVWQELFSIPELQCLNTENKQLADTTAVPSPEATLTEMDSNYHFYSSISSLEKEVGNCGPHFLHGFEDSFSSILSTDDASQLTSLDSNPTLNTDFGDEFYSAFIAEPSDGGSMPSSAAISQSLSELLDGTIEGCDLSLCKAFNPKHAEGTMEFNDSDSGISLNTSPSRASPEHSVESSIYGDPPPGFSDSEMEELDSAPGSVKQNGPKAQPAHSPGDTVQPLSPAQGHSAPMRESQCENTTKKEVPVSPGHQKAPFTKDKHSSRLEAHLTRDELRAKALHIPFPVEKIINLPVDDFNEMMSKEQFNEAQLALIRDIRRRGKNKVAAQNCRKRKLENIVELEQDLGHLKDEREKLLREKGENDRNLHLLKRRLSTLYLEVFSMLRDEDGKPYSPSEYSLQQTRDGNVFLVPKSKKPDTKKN
T1 sequence (Q9Z2X8 whole entry, looked up): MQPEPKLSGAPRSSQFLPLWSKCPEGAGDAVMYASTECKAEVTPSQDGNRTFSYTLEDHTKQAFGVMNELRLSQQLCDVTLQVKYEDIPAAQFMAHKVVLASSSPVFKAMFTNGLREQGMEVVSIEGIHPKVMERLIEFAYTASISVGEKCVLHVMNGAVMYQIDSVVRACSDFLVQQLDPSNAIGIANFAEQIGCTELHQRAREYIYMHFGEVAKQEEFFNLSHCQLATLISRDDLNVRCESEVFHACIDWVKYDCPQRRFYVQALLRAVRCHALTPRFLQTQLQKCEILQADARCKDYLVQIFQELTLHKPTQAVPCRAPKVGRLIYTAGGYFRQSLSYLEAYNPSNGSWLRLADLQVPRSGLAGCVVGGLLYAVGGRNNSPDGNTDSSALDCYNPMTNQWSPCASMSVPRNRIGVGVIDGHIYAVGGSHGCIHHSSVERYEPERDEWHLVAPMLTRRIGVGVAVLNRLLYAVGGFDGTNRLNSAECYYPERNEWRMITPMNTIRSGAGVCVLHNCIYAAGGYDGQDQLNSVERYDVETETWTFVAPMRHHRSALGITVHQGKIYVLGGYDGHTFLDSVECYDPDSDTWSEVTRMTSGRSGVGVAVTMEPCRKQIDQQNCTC

Consider `COc1ccc(S(=O)(=O)N(CC(=O)O)c2ccc(N(CC(=O)O)S(=O)(=O)c3ccc(OC)cc3)c3ccccc23)cc1`, for which the Activity result with HepG2 is “Non-Toxic”. The remaining at 0.5 h, 1 µM in data set [1] came out at 58.6%.
Taken in the same sequence, the figures for `CCOc1ccc(S(=O)(=O)Nc2cc3c(C(=O)NN)c(C)n(S(=O)(=O)c4ccc(OCC)cc4)c3c3ccccc23)cc1` were “Non-Toxic” and 46.6%.
For the compound `CC(C)(C)c1cc(O)ccc1O`, the inhibition entry in data set [2] is “Active”.
Take `COc1cccc2c1C(=O)c1c(O)c3c(c(O)c1C2=O)C[C@@](O)(C(=O)CO)C[C@@H]3O[C@H]1C[C@H](N)[C@H](O)[C@H](C)O1` [DOXORUBICIN]: the Activity entry in the data set on HepG2 is given as “Toxic”.
Turning to `COc1ccc(S(=O)(=O)Nc2cc3c(C(=O)NNc4ccc([N+](=O)[O-])cc4)c(C)n(S(=O)(=O)c4ccc(OC)cc4)c3c3ccccc23)cc1`, the Activity result in the data set with HepG2 is “Toxic”. The remaining at 0.5 h, 1 µM in data set [1] came to 86.5%.
For `CNNC(=O)c1c(C)n(S(=O)(=O)c2ccc(OC)cc2)c2c1cc(NS(=O)(=O)c1ccc(OC)cc1)c1ccccc12` the same measures were “Non-Toxic” and 90.8%.
Take `COc1ccc(S(=O)(=O)Nc2cc3c(C(=O)NNc4ccccc4)c(C)n(S(=O)(=O)c4ccc(OC)cc4)c3c3ccccc23)cc1`: in the data set with HepG2, the Activity entry is “Non-Toxic”. In addition, the remaining at 0.5 h, 1 µM in data set [1] was 85.4%.
As to `CCOc1ccc(S(=O)(=O)Nc2cc3c(C(=O)NO)c(C)n(S(=O)(=O)c4ccc(OCC)cc4)c3c3ccccc23)cc1`, the inhibition result in data set [3] was “Active”. The Activity result with HepG2 is recorded as “Non-Toxic”. Besides, in data set [1], the remaining at 0.5 h, 1 µM was 81%.
For `COc1ccc(S(=O)(=O)Nc2ccc(NS(=O)(=O)c3ccc(OC)cc3)c3ccccc23)cc1`, the remaining at 0.5 h, 1 µM in data set [1] turned out to be 9.3%.
As to `COc1ccc(NNC(=O)c2c(C)n(S(=O)(=O)c3ccc(OC)cc3)c3c2cc(NS(=O)(=O)c2ccc(OC)cc2)c2ccccc23)cc1`, the Activity entry in the data set on HepG2 is “Non-Toxic”. Besides, the remaining at 0.5 h, 1 µM in data set [1] turned out to be 94.8%.
